Data taken from patent US20260171190A1, “ASSESSMENT OF GR CELLULAR SIGNALING PATHWAY ACTIVITY USING MATHEMATICAL MODELLING OF TARGET GENE EXPRESSION” (priority 2021, published 2026).
Read-outs that look alike come from different tables or passages of the source.

Tested on: GR cellular signaling pathway
Experimental: Triple Negative Breast cancer cell line (MDA-MB-231) treated for 4, 8, 12 hrs with vehicle, 100 nM dexamethasone, 100 nM dexamethasone and 100 nM mifrepristone (GCR antagonist), or 100 nM dexamethasone and 100 nM CORT108297 (GCR antagonist).
GR pathway activity scores are presented on a normalized 0-100 scale.

Structure (SMILES) | antagonism of the dexamethasone effect on GR pathway activity (MDA-MB-231, 100 nM dexamethasone and 100 nM antagonist, 4, 8, 12 hrs) | antagonism of the dexamethasone effect on GR pathway activity
CCOC[C@]12Cc3cnn(-c4ccc(F)cc4)c3C=C1CCN(S(=O)(=O)c1ccc(C(F)(F)F)cc1)C2 [CORT108297] | minimally effective | –
CC#C[C@]1(O)CC[C@H]2[C@@H]3CCC4=CC(=O)CCC4=C3[C@@H](c3ccc(N(C)C)cc3)C[C@@]21C [Mifrepristone] | – | strong dexamethasone antagonist
